# Data from patent US9006487B2, “Amine-containing lipids and uses thereof” (Massachusetts Institute of Technology, priority 2005, dated 2015).
# Values joined by “and” are separate entries in the source; they are usually repeats but may differ in a detail not shown here. Equal entries are not always repeated.
# Tested on: cos-7 cells
# Experiment: DNA transfection: luciferase expression relative to Lipofectamine 2000
# Format: cell-based
# Conditions: for Luciferase expression as a percentage of that achieved using Lipofectamine 2000: 300 ng Luciferase DNA per well; for luciferase expression (second part of table, values relative to LIPO2000): 300 ng of DNA per well
# How it was run: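 cos-7 cells were transfected with 300 ng/well luciferase DNA complexed with lipid at ratios from 2.5 to 25 w/w. Bright-Glo luminescence was read after 48 hours and converted to ng luciferase by standard curve. Data are percent of the Lipofectamine 2000 control (2.5 w/w).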
# [1] = lipid/DNA 2.5 w/w, luciferase assay after 48 hours
# [2] = lipid/DNA 5 w/w, luciferase assay after 48 hours
# [3] = lipid/DNA 10 w/w, luciferase assay after 48 hours
# [4] = lipid/DNA 15 w/w, luciferase assay after 48 hours
# [5] = lipid/DNA 20 w/w, luciferase assay after 48 hours
# [6] = lipid/DNA 25 w/w, luciferase assay after 48 hours
SMILES,Luciferase expression as a percentage of that achieved using Lipofectamine 2000 [1],Luciferase expression as a percentage of that achieved using Lipofectamine 2000 [2],Luciferase expression as a percentage of that achieved using Lipofectamine 2000 [3],Luciferase expression as a percentage of that achieved using Lipofectamine 2000 [4],Luciferase expression as a percentage of that achieved using Lipofectamine 2000 [5],Luciferase expression as a percentage of that achieved using Lipofectamine 2000 [6],"luciferase expression (second part of table, values relative to LIPO2000) (lipid/DNA 2.5 w/w)","luciferase expression (second part of table, values relative to LIPO2000) (lipid/DNA 5 w/w)","luciferase expression (second part of table, values relative to LIPO2000) (lipid/DNA 10 w/w)","luciferase expression (second part of table, values relative to LIPO2000) (lipid/DNA 15 w/w)","luciferase expression (second part of table, values relative to LIPO2000) (lipid/DNA 20 w/w)","luciferase expression (second part of table, values relative to LIPO2000) (lipid/DNA 25 w/w)","Luciferase expression as a percentage of that achieved using Lipofectamine 2000 (lipid/DNA 2.5 w/w, 72 hours incubation before bright-glo) [%]","Luciferase expression as a percentage of that achieved using Lipofectamine 2000 (lipid/DNA 5 w/w, 72 hours incubation before bright-glo) [%]","Luciferase expression as a percentage of that achieved using Lipofectamine 2000 (lipid/DNA 10 w/w, 72 hours incubation before bright-glo) [%]","Luciferase expression as a percentage of that achieved using Lipofectamine 2000 (lipid/DNA 15 w/w, 72 hours incubation before bright-glo) [%]","Luciferase expression as a percentage of that achieved using Lipofectamine 2000 (lipid/DNA 20 w/w, 72 hours incubation before bright-glo) [%]","Luciferase expression as a percentage of that achieved using Lipofectamine 2000 (lipid/DNA 25 w/w, 72 hours incubation before bright-glo) [%]"
CCCCCCCCCCCCCCCOC(=O)CCN(CCC(=O)OCCCCCCCCCCCCCCC)CC(C)O (centres unmarked) [LG21],0.1%,0.1%,0.1%,0.2%,0.2%,0.4%,–,–,–,–,–,–,–,–,–,–,–,–
CCCCCCCCCCCCCCCOC(=O)CCN(CCC(=O)OCCCCCCCCCCCCCCC)C[C@H](C)O [LG22],0.2%,0.3%,0.4%,0.5%,0.4%,0.7%,–,–,–,–,–,–,–,–,–,–,–,–
CCCCCCCCCCCCCCCOC(=O)CCN(CCC(=O)OCCCCCCCCCCCCCCC)CC(O)CO (centres unmarked) [LG24],2.0%,3.3%,4.8%,11.2%,16.4%,32.5%,–,–,–,–,–,–,–,–,–,–,–,–
CCCCCCCCCCCCCCCOC(=O)CCN(CCC(=O)OCCCCCCCCCCCCCCC)C(CO)CO [LG25],15.9%,32.0%,43.2%,56.9%,42.1%,63.9%,15.9,32.0,43.2,56.9,42.1,63.9,–,–,–,–,–,–
CCCCCCCCCCCCCCCOC(=O)CCN(CCC(=O)OCCCCCCCCCCCCCCC)C(C)(CO)CO [LG26],0.6%,13.0%,1.9%,0.5%,0.3%,0.4%,–,–,–,–,–,–,–,–,–,–,–,–
CCCCCCCCCCCCCCCOC(=O)CCN(CCCCO)CCC(=O)OCCCCCCCCCCCCCCC [LG28],0.2%,0.5%,0.2%,0.2%,0.1%,0.2%,–,–,–,–,–,–,–,–,–,–,–,–
CCCCCCCCCCCCCCCOC(=O)CCN(CCC(=O)OCCCCCCCCCCCCCCC)CC(C)(C)CO [LG33],0.1%,0.1%,0.1%,0.1%,0.1%,0.1%,–,–,–,–,–,–,–,–,–,–,–,–
CCCCCCCCCCCCCCCOC(=O)CCN(CCC(=O)OCCCCCCCCCCCCCCC)C(CC)(CO)CO [LG34],–,–,1.4%,0.8%,–,–,–,–,–,–,–,–,–,–,–,–,–,–
CCCCCCCCCCCCCCCOC(=O)CCN(C)CCN(C)CCC(=O)OCCCCCCCCCCCCCCC [LG60],0.9%,1.0%,0.8%,0.9%,0.8%,1.0%,–,–,–,–,–,–,–,–,–,–,–,–
CCCCCCCCCCCCCCCOC(=O)CCN(CC)CCN(CC)CCC(=O)OCCCCCCCCCCCCCCC [LG61],0.4%,0.5%,0.4%,0.4%,0.4%,0.5%,–,–,–,–,–,–,–,–,–,–,–,–
CCCCCCCCCCCCCCCOC(=O)CCN(CC)CCCN(CC)CCC(=O)OCCCCCCCCCCCCCCC [LG64],0.0% and 0.2%,0.0% and 0.1%,0.0% and 0.1%,0.0% and 0.1%,0.0% and 0.1%,0.0% and 0.2%,–,–,–,–,–,–,0.3,0.3,1.8,1.8,1.2,1.6
CCCCCCCCCCCCCCCOC(=O)CCN(CCCN(CC)CC)CCC(=O)OCCCCCCCCCCCCCCC [LG81],0.7%,0.8%,1.2%,4.1%,14.8%,19.9%,–,–,–,–,–,–,–,–,–,–,–,–
CCCCCCCCCCCCCCCOC(=O)CCN(CCC(=O)OCCCCCCCCCCCCCCC)CCN1CCCCC1 [LG82],0.2%,0.2%,0.6%,0.8%,0.5%,1.2%,–,–,–,–,–,–,–,–,–,–,–,–
CCCCCCCCCCCCCCCOC(=O)CCN(CCCN(CCO)CCO)CCC(=O)OCCCCCCCCCCCCCCC [LG87],14.5%,7.5%,9.2%,10.4%,5.9%,4.7%,–,–,–,–,–,–,–,–,–,–,–,–
CCCCCCCCCCCCCCCOC(=O)CCN(CCC(=O)OCCCCCCCCCCCCCCC)CCN1CCOCC1 [LG90],0.1% and 0.6%,0.1% and 0.6%,0.0% and 0.4%,0.0% and 0.4%,0.1% and 0.4%,0.0% and 0.4%,–,–,–,–,–,–,–,–,–,–,–,–
